Measured values from article PMC6409085, “Three odorant-binding proteins are involved in the behavioral response of Sogatella furcifera to rice plant volatiles” (PeerJ, 2019).
Values joined by “and” are separate entries in the source; they are usually repeats but may differ in a detail not shown here. Identical values can stand only once.

Assays:
SfurOBP1 = SfurOBP1 (Sogatella furcifera, UniProt V5T8N5); assay: biochemical; type: binding; conditions: for Fluorescence competitive binding assay, fluorescence intensity: OBP1, three replicate columns
Outline: (§1)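 K1-NPN came from titrating 2.0 µM protein (50 mM Tris-HCl, pH 7.4) with 1-NPN. Odorants at 2-20 µM then competed against 2.0 µM protein plus 2.0 µM 1-NPN for 2 min, with excitation at 337 nm and emission recorded over 390-490 nm. IC50 values were converted to Ki via Ki = IC50/(1 + [1-NPN]/K1-NPN).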

SfurOBP11 = SfurOBP11 (Sogatella furcifera, UniProt V5T6E3); assay: biochemical; type: binding
Outline: as §1

SfurOBP2 = SfurOBP2 (Sogatella furcifera, UniProt V5T759); assay: biochemical; type: binding
Outline: as §1

SfurOBP3 = SfurOBP3 (Sogatella furcifera, UniProt V5T818); assay: biochemical; type: binding; conditions: for Fluorescence competitive binding assay, fluorescence intensity: OBP3, three replicate columns
Outline: as §1

S. furcifera adults = assay: Y-tube olfactometer behavioral trials; type: in vivo, Sogatella furcifera; conditions: odorant 50 µL/L vs hexane; adults
Outline: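 Single S. furcifera adults (2 days post-emergence, starved 0.5 h) chose between odorant (100 µL of 50 µL/L on filter paper) and hexane control in a glass Y-tube, charcoal-filtered humidified air 300 mL/min per arm, 25 ± 1 °C, 50% RH. Choice scored if insect passed half an arm and stayed >1 min within 10 min; 45 insects per compound, chi-squared test.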

Sequence of SfurOBP11 (V5T6E3 entry or part of it): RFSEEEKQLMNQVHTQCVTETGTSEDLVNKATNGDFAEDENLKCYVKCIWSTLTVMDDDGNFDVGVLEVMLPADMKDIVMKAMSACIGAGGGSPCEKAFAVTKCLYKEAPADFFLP
Sequence of SfurOBP1 (V5T8N5 entry or part of it): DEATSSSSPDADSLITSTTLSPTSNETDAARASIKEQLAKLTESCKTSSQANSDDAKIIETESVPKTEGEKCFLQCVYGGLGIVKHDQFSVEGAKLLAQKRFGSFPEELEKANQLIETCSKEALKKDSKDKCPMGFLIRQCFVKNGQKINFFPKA
Sequence of SfurOBP3 (V5T818 entry or part of it): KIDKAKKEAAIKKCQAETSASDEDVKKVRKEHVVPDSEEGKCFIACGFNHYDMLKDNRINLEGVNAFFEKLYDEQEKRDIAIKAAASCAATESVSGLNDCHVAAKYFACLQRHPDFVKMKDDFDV
Sequence of SfurOBP2 (V5T759 entry or part of it): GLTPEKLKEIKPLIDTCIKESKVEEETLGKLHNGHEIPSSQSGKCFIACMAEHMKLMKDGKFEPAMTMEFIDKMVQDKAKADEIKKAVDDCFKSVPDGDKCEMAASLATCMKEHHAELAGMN

O=Cc1ccccc1 [benzaldehyde]
IC50 (SfurOBP1): > 20 µM
Fluorescence competitive binding assay, fluorescence intensity (SfurOBP1; ligand concentration 2 (μM)): 6748 and 7004 and 6492
Fluorescence competitive binding assay, fluorescence intensity (SfurOBP1; ligand concentration 4 (μM)): 7245 and 7115 and 7374
Fluorescence competitive binding assay, fluorescence intensity (SfurOBP1; ligand concentration 6 (μM)): 6061 and 6132 and 7040
Fluorescence competitive binding assay, fluorescence intensity (SfurOBP1; ligand concentration 8 (μM)): 7119 and 7198 and 8488
Fluorescence competitive binding assay, fluorescence intensity (SfurOBP1; ligand concentration 10 (μM)): 6689 and 6820 and 6663
Fluorescence competitive binding assay, fluorescence intensity (SfurOBP1; ligand concentration 12 (μM)): 6039 and 7567 and 5952
Fluorescence competitive binding assay, fluorescence intensity (SfurOBP1; ligand concentration 14 (μM)): 5985 and 6868 and 6969
Fluorescence competitive binding assay, fluorescence intensity (SfurOBP1; ligand concentration 16 (μM)): 5390 and 5637 and 6081
Fluorescence competitive binding assay, fluorescence intensity (SfurOBP1; ligand concentration 18 (μM)): 7493 and 9048 and 6239
Fluorescence competitive binding assay, fluorescence intensity (SfurOBP1; ligand concentration 20 (μM)): 8583 and 7861 and 5961
IC50 (SfurOBP11): > 20 µM
Fluorescence intensity, fluorescence competitive binding assay, OBP11 (SfurOBP11; ligand concentration 2, replicate 1): 25700
Fluorescence intensity, fluorescence competitive binding assay, OBP11 (SfurOBP11; ligand concentration 2, replicate 2): 26420
Fluorescence intensity, fluorescence competitive binding assay, OBP11 (SfurOBP11; ligand concentration 2, replicate 3): 26489
Fluorescence intensity, fluorescence competitive binding assay, OBP11 (SfurOBP11; ligand concentration 4, replicate 1): 25103
Fluorescence intensity, fluorescence competitive binding assay, OBP11 (SfurOBP11; ligand concentration 4, replicate 2): 25939
Fluorescence intensity, fluorescence competitive binding assay, OBP11 (SfurOBP11; ligand concentration 4, replicate 3): 26917
Fluorescence intensity, fluorescence competitive binding assay, OBP11 (SfurOBP11; ligand concentration 6, replicate 1): 24540
Fluorescence intensity, fluorescence competitive binding assay, OBP11 (SfurOBP11; ligand concentration 6, replicate 2): 24263
Fluorescence intensity, fluorescence competitive binding assay, OBP11 (SfurOBP11; ligand concentration 6, replicate 3): 26004
Fluorescence intensity, fluorescence competitive binding assay, OBP11 (SfurOBP11; ligand concentration 8, replicate 1): 24810
Fluorescence intensity, fluorescence competitive binding assay, OBP11 (SfurOBP11; ligand concentration 8, replicate 2): 23717
Fluorescence intensity, fluorescence competitive binding assay, OBP11 (SfurOBP11; ligand concentration 8, replicate 3): 25921
Fluorescence intensity, fluorescence competitive binding assay, OBP11 (SfurOBP11; ligand concentration 10, replicate 1): 21750
Fluorescence intensity, fluorescence competitive binding assay, OBP11 (SfurOBP11; ligand concentration 10, replicate 2): 22655
Fluorescence intensity, fluorescence competitive binding assay, OBP11 (SfurOBP11; ligand concentration 10, replicate 3): 24544
Fluorescence intensity, fluorescence competitive binding assay, OBP11 (SfurOBP11; ligand concentration 12, replicate 1): 22377
Fluorescence intensity, fluorescence competitive binding assay, OBP11 (SfurOBP11; ligand concentration 12, replicate 2): 22204
Fluorescence intensity, fluorescence competitive binding assay, OBP11 (SfurOBP11; ligand concentration 12, replicate 3): 22549
Fluorescence intensity, fluorescence competitive binding assay, OBP11 (SfurOBP11; ligand concentration 14, replicate 1): 20889
Fluorescence intensity, fluorescence competitive binding assay, OBP11 (SfurOBP11; ligand concentration 14, replicate 2): 20823
Fluorescence intensity, fluorescence competitive binding assay, OBP11 (SfurOBP11; ligand concentration 14, replicate 3): 20954
Fluorescence intensity, fluorescence competitive binding assay, OBP11 (SfurOBP11; ligand concentration 16, replicate 1): 18305
Fluorescence intensity, fluorescence competitive binding assay, OBP11 (SfurOBP11; ligand concentration 16, replicate 2): 18429
Fluorescence intensity, fluorescence competitive binding assay, OBP11 (SfurOBP11; ligand concentration 16, replicate 3): 20008
Fluorescence intensity, fluorescence competitive binding assay, OBP11 (SfurOBP11; ligand concentration 18, replicate 1): 18084
Fluorescence intensity, fluorescence competitive binding assay, OBP11 (SfurOBP11; ligand concentration 18, replicate 2): 18788
Fluorescence intensity, fluorescence competitive binding assay, OBP11 (SfurOBP11; ligand concentration 18, replicate 3): 18463
Fluorescence intensity, fluorescence competitive binding assay, OBP11 (SfurOBP11; ligand concentration 20, replicate 1): 17844
Fluorescence intensity, fluorescence competitive binding assay, OBP11 (SfurOBP11; ligand concentration 20, replicate 2): 18414
Fluorescence intensity, fluorescence competitive binding assay, OBP11 (SfurOBP11; ligand concentration 20, replicate 3): 17540
IC50 (SfurOBP2): > 20 µM
Fluorescence competitive binding assay, OBP2 (raw fluorescence reading) (SfurOBP2; ligand concentration 2 (unit not given), replicate column 1 of 3): 15507
Fluorescence competitive binding assay, OBP2 (raw fluorescence reading) (SfurOBP2; ligand concentration 2 (unit not given), replicate column 2 of 3): 14848
Fluorescence competitive binding assay, OBP2 (raw fluorescence reading) (SfurOBP2; ligand concentration 2 (unit not given), replicate column 3 of 3): 15027
Fluorescence competitive binding assay, OBP2 (raw fluorescence reading) (SfurOBP2; ligand concentration 4 (unit not given), replicate column 1 of 3): 14937
Fluorescence competitive binding assay, OBP2 (raw fluorescence reading) (SfurOBP2; ligand concentration 4 (unit not given), replicate column 2 of 3): 13962
Fluorescence competitive binding assay, OBP2 (raw fluorescence reading) (SfurOBP2; ligand concentration 4 (unit not given), replicate column 3 of 3): 14585
Fluorescence competitive binding assay, OBP2 (raw fluorescence reading) (SfurOBP2; ligand concentration 6 (unit not given), replicate column 1 of 3): 13559
Fluorescence competitive binding assay, OBP2 (raw fluorescence reading) (SfurOBP2; ligand concentration 6 (unit not given), replicate column 2 of 3): 14529
Fluorescence competitive binding assay, OBP2 (raw fluorescence reading) (SfurOBP2; ligand concentration 6 (unit not given), replicate column 3 of 3): 14868
Fluorescence competitive binding assay, OBP2 (raw fluorescence reading) (SfurOBP2; ligand concentration 8 (unit not given), replicate column 1 of 3): 13310
Fluorescence competitive binding assay, OBP2 (raw fluorescence reading) (SfurOBP2; ligand concentration 8 (unit not given), replicate column 2 of 3): 14622
Fluorescence competitive binding assay, OBP2 (raw fluorescence reading) (SfurOBP2; ligand concentration 8 (unit not given), replicate column 3 of 3): 14449
Fluorescence competitive binding assay, OBP2 (raw fluorescence reading) (SfurOBP2; ligand concentration 10 (unit not given), replicate column 1 of 3): 13559
Fluorescence competitive binding assay, OBP2 (raw fluorescence reading) (SfurOBP2; ligand concentration 10 (unit not given), replicate column 2 of 3): 13459
Fluorescence competitive binding assay, OBP2 (raw fluorescence reading) (SfurOBP2; ligand concentration 10 (unit not given), replicate column 3 of 3): 14101
Fluorescence competitive binding assay, OBP2 (raw fluorescence reading) (SfurOBP2; ligand concentration 12 (unit not given), replicate column 1 of 3): 13500
Fluorescence competitive binding assay, OBP2 (raw fluorescence reading) (SfurOBP2; ligand concentration 12 (unit not given), replicate column 2 of 3): 13742
Fluorescence competitive binding assay, OBP2 (raw fluorescence reading) (SfurOBP2; ligand concentration 12 (unit not given), replicate column 3 of 3): 13318
Fluorescence competitive binding assay, OBP2 (raw fluorescence reading) (SfurOBP2; ligand concentration 14 (unit not given), replicate column 1 of 3): 12764
Fluorescence competitive binding assay, OBP2 (raw fluorescence reading) (SfurOBP2; ligand concentration 14 (unit not given), replicate column 2 of 3): 13284
Fluorescence competitive binding assay, OBP2 (raw fluorescence reading) (SfurOBP2; ligand concentration 14 (unit not given), replicate column 3 of 3): 13618
Fluorescence competitive binding assay, OBP2 (raw fluorescence reading) (SfurOBP2; ligand concentration 16 (unit not given), replicate column 1 of 3): 12066
Fluorescence competitive binding assay, OBP2 (raw fluorescence reading) (SfurOBP2; ligand concentration 16 (unit not given), replicate column 2 of 3): 12546
Fluorescence competitive binding assay, OBP2 (raw fluorescence reading) (SfurOBP2; ligand concentration 16 (unit not given), replicate column 3 of 3): 12131
Fluorescence competitive binding assay, OBP2 (raw fluorescence reading) (SfurOBP2; ligand concentration 18 (unit not given), replicate column 1 of 3): 11847
Fluorescence competitive binding assay, OBP2 (raw fluorescence reading) (SfurOBP2; ligand concentration 18 (unit not given), replicate column 2 of 3): 12489
Fluorescence competitive binding assay, OBP2 (raw fluorescence reading) (SfurOBP2; ligand concentration 18 (unit not given), replicate column 3 of 3): 12075
Fluorescence competitive binding assay, OBP2 (raw fluorescence reading) (SfurOBP2; ligand concentration 20 (unit not given), replicate column 1 of 3): 11984
Fluorescence competitive binding assay, OBP2 (raw fluorescence reading) (SfurOBP2; ligand concentration 20 (unit not given), replicate column 2 of 3): 12356
Fluorescence competitive binding assay, OBP2 (raw fluorescence reading) (SfurOBP2; ligand concentration 20 (unit not given), replicate column 3 of 3): 11918
IC50 (SfurOBP3): > 20 µM
Fluorescence competitive binding assay, fluorescence intensity (SfurOBP3; ligand concentration 2): 45330 and 44709 and 45950
Fluorescence competitive binding assay, fluorescence intensity (SfurOBP3; ligand concentration 4): 42404 and 44063 and 46652
Fluorescence competitive binding assay, fluorescence intensity (SfurOBP3; ligand concentration 6): 42957 and 46006 and 45764
Fluorescence competitive binding assay, fluorescence intensity (SfurOBP3; ligand concentration 8): 41484 and 44807 and 44761
Fluorescence competitive binding assay, fluorescence intensity (SfurOBP3; ligand concentration 10): 42296 and 40919 and 43670
Fluorescence competitive binding assay, fluorescence intensity (SfurOBP3; ligand concentration 12): 40362 and 40474 and 40259
Fluorescence competitive binding assay, fluorescence intensity (SfurOBP3; ligand concentration 14): 36140 and 35545 and 34940
Fluorescence competitive binding assay, fluorescence intensity (SfurOBP3; ligand concentration 16): 32608 and 31985 and 31371
Fluorescence competitive binding assay, fluorescence intensity (SfurOBP3; ligand concentration 18): 31185 and 31705 and 30913
Fluorescence competitive binding assay, fluorescence intensity (SfurOBP3; ligand concentration 20): 30533 and 30370 and 31330
number of insects choosing hexane arm (S. furcifera adults): 10
number of insects choosing volatilies arm (S. furcifera adults): 7
number of insects failed (no choice) (S. furcifera adults): 23
